Data reported in patent US10821142B2, “Cancer treatment and diagnosis” (priority 2015, dated 2020).

How the values were obtained:
type I IFN production = assay: IFNB induction (qPCR) in normal and colon cancer cells treated with AOM or DMH; format: cell-based, human; conditions: 15 mM for 20 hours
Description: FIG. 22. Normal and colon cancer cells were treated with AOM or DMH at 15 mM for 20 hours. IFNB induction was analyzed by qPCR. STING, IRF3 and NF-kB translocation was examined: +, translocation; −, no translocation.
The question arises as to why the STING-signaling pathway may be inhibited in colon adenocarcinoma. Recently, it was shown that STING-deficient cells and mice are sensitive to AOM-induced DNA damage. In this situation, the STING pathway may play a role in the DNA-damage response pathway, to induce the production of cytokines which facilitate tissue repair or damaged cell removal (Chatzinikolaou et al., 2014; Kidane et al., 2014; Lord and Ashworth, 2012). As such, innate immune induction of CA cells in response to DNA damaging agents was examined. […] Thus, the inhibition of the STING pathway may enable DNA damaged cells, harboring mutations, to escape part of the DNA damage response and the immune surveillance machinery to progress into a tumorigenic state.

[1] = system: STING-dependent genes in murine embryonic fibroblasts; assay: Gene array and qPCR of WT and SKO MEFs treated with AOM or DMH; format: cell-based, mouse; conditions: WT and SKO MEFs; DMH 1 mM for 8 hours
Description: FIGS. 1A-1E show activation of STING-dependent genes by azoxymethane (AOM) (FIG. 1A) Gene array analysis of Wild type (WT) and STING deficient (SKO) mouse embryonic fibroblasts (MEFs) treated with AOM at 0.14 mM for 8 hours (Left) and 1,2-dimethylhydrazine (DMH) at 1 mM for 8 hours (Right). Highest variable genes are shown. Rows represent individual genes; columns represent individual samples. Grayscale indicates transcript levels below, equal to, or above the mean. Scale represents the intensity of gene expression (log 2 scale ranges between −2.4 and 2.4). (FIG. 1B) qPCR analysis of Cxcl10 and Ifit3 in MEFs treated with AOM and DMH same as FIG. 1A. (FIG. 1C) qPCR analysis of Cxcl10 in Human epithelial cell (FHC) treated with AOM and DMH at 1 mM for 24 hours. (FIG. 1D) FHC cells were transfected with STING or control siRNA for 72 hours followed by AOM and DMH treatment same as FIG. 1C, and were then subjected to Cxcl0 mRNA expression (Left). STING expression level after siRNA treatment was determined by qPCR (Right). […] (FIG. 1E) STING Immunohistochemistry staining of the colon tissue from WT and SKO mice (Left) and Human. All images were shown at original magnification, 200×.
Towards these objectives, the AOM/DSS model, as described above, was utilized and analyzed the effects of AOM and precursor DMH upon STING signaling. Principally, wild type (WT) or STING-deficient (SKO) murine embryonic fibroblasts (MEF) were treated in vitro with DMH or metabolite AOM for 8 hours and microarray analysis performed to analyze the consequences to gene expression. […] The observed STING-dependent gene expression was confirmed following RT-PCR analysis of select mRNA such as Cxcl10 and IFIT3 (FIG. 1B). […] Thus, the DNA damaging agent DMH/AOM can invoke STING-dependent signaling.
Total RNA was isolated from cells or tissues with RNeasy Mini kit (74104, Qiagen, Valencia, Calif.). RNA quality was analyzed by Bionalyzer RNA 6000 Nano (Agilent Technologies, Santa Clara Calif.). […]

IRF3/NF-κB translocation = assay: Immunofluorescence of IRF3/NF-κB translocation in FHC treated with DMH/AOM; format: cell-based, human; conditions: 3 mM for 48 hours
Description: FIGS. 8A-8C show fluorescence microscopy analysis (related to FIG. 1) of DAPI staining in WT and SKO MEFs treated with 3 mM of AOM of 3 mM of DMH (FIG. 8A) and anti-dsDNA staining and the ration of cytoplasm to nucleus (FIG. 8B) in Human normal colon epithelial cells (FHC) treated with 3 mM of AOM or 3 mM of DMH for 48 hours. (FIG. 8C) Immunofluorescence microscopy analysis of FHC treated with AOM and DMH sane as FIG. 8A for 48 hours using p65 or IRF3 antibody. Images shown at original magnification, 160×.
To start determining the mechanisms underlining the cause of DMH/AOM-induced STING activity, MEF or FHC cells were treated with these drugs and observed by two different approaches, DAPI staining and immunofluorescence (IF) using anti-dsDNA antibody, the leakage of DNA into the cytosol (FIGS. 8A and 8B). Cytosolic DNA activates STING and stimulates STING/TBK1 trafficking via autophagy to endosomal regions harboring the transcription factors IRF3 and NF-κB, which triggers cytokine production. […]
Cells were cultured and treated in their appropriate media on Lab-Tek II chamber slides. […] Immunostaining was performed with rabbit-anti-STING polyclonal followed by fluorescence conjugated secondary antibodies (FITC-goat-anti-rabbit) (Invitrogen). […]

CNNC [DMH, 1,2-dimethylhydrazine]
production of type I IFN (type I IFN production; CA cells with defective STING activated IRF3 or NF-kB activity): unable to generate type I IFN | production of type I IFN (type I IFN production; normal colon epithelial (CCD841) and LS123): able to induce the production of type I IFN | STING-dependent gene expression [1]: A similar effect was observed | translocation of IRF3/NF-κB (IRF3/NF-κB translocation): could instigate the translocation of IRF3/NF-κB
